Laboratory results reported in patent US8318947B2, “Comestible compositions comprising high potency savory flavorants, and processes for producing them” (Senomyx, Inc., priority 2006, dated 2012).

Molecular target: T1, hT1R1/hT1R3 umami receptor expressed in an HEK293 cell line (Homo sapiens, UniProt Q7RTX0+Q7RTX1)
T1 construct: expressed in transfected cells; host or cells: HEK293 cell line derivative, clone 1-17, expression induced with mifepristone
T1 sequence (Q7RTX1 21-841): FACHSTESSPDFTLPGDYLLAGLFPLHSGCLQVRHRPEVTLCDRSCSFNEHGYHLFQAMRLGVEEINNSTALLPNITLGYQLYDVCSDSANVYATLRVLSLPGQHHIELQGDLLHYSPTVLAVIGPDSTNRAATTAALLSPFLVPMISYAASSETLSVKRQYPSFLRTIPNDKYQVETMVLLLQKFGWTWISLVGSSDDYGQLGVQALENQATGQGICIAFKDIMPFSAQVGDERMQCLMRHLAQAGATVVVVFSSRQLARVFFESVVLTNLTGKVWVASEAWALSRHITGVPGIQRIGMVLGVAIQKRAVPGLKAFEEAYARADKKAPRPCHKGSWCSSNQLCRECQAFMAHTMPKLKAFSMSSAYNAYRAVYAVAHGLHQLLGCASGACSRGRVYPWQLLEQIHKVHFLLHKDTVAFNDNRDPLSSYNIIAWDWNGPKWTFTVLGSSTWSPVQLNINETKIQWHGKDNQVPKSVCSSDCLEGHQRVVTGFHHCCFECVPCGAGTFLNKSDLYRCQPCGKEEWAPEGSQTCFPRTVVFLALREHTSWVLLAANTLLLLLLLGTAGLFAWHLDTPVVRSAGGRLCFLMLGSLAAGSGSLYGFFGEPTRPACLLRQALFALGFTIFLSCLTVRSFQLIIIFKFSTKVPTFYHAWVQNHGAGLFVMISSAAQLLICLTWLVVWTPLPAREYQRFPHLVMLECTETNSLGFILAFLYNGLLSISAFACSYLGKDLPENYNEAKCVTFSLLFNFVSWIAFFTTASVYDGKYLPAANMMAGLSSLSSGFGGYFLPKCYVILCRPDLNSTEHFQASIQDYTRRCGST
T1 sequence (Q7RTX0 21-852): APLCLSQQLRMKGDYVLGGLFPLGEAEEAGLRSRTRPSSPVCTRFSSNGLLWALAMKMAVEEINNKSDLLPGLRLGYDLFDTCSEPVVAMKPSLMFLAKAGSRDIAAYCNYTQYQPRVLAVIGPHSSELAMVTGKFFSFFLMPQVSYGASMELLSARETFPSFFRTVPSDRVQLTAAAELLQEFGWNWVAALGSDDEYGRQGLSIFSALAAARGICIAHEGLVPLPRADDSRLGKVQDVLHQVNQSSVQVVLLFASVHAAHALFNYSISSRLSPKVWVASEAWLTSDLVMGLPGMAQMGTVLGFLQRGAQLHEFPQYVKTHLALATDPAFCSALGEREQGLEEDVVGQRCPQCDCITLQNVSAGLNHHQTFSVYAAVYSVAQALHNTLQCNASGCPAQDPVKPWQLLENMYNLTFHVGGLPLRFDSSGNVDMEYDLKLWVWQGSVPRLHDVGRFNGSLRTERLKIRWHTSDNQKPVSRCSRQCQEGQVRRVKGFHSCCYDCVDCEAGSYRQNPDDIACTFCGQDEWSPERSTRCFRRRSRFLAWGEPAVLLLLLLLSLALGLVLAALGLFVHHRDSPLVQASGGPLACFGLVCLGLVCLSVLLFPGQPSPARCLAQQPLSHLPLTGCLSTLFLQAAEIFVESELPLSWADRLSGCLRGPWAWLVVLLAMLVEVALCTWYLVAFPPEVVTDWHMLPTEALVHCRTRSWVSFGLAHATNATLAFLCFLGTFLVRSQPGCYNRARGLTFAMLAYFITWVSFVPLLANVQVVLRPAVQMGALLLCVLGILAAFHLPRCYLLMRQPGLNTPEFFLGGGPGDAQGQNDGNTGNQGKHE
Assay: Umami taste enhancement assay (EC50 ratio vs. MSG)
Format: cell-based
Description: In umami taste enhancement activity assay experiments, which produce an “EC50 ratio” measurement of how effectively the amide compounds of the invention enhance the savory flavorant (typically MSG) already in a test solution. A series of measurements of the dose response is run in solutions comprising MSG alone, then a second dose response is run with MSG in combination with predetermined amounts of a candidate compound of Formula (I) at the same time.
In this assay, increasing concentrations of monosodium glutamate (ranging from 12 μM to 81 mM) were presented, in duplicates, in the presence or absence of a fixed concentration of the test compound. Typical compound concentrations tested were 30 μM, 10 μM, 3 μM, 1 μM, 0.3 μM, 0.1 μM and 0.03 μM. The relative efficacy of compounds of […] at enhancing the receptor was determined by calculating the magnitude of a shift in the EC50 for monosodium glutamate. Enhancement was defined as a ratio (EC50R) corresponding to the EC50 of monosodium glutamate, determined in the absence of the test compound, divided by the EC50 of monosodium glutamate, determined in the presence of the test compound.
Stated alternatively, “EC50 ratio” as compared to MSG is calculated based on the following definitions:
EC50 Ratio vs. MSG=EC50 (MSG)/EC50 (MSG+[Compound]) wherein “[compound]” refers to the concentration of the compound of Formula (I) used to elicit (or enhance or potentiate) the MSG dose response.
It should be noted that the EC50 ratio measured can depend somewhat on the concentration of the compound itself. Preferred savory enhancers would have a high EC50 Ratio vs. MSG at a low concentration of the compound used.

Row | EC50 ratio (enhancement of the effectiveness of monosodium glutamate) (compound present at 0.03 μM) | EC50 ratio (enhancement of the effectiveness of monosodium glutamate) (compound present at 0.3 μM) | SMILES
1 | 6.92 |  | CCCC(CCC)NC(=O)c1ccc2c(c1)OCO2 [Example 1, N-(heptan-4-yl)benzo[d][1,3]dioxole-5-carboxamide]
2 |  | 6.51 | COc1ccc(CNC(=O)C(=O)NCCc2ccccn2)c(OC)c1 [Example 24, N-(2,4-Dimethoxy-benzyl)-N′-(2-pyridin-2-yl-ethyl)-oxalamide]
